For the assay, the system named is beta-TC6 cells. The assay is described as follows: Insulin HTRF assay (relative activity Ar) in beta-TC6 cells. Format: cell-based, mouse. The note with it: Mus musculus, Beta-TC6, 4 h, insulin HTRF, supernatant of beta-TC6 cells, incubation with test compound at 37°C for 2, 3, 4h; read-out: Ar (relative activity). The method in brief:
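beta-TC6 cells (15k/well, seeded 24 or 48 h) washed, then exposed to compound in induction buffer (0.5% DMSO final) for 2, 3 or 4 h at 37°C.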
(In TR-FRET formats the signal depends on donor and acceptor labels being close together.)
As to `CC(=O)N(C)c1cccc(-c2cc3cnc(Nc4ccc(S(C)(=O)=O)cc4)cc3n2C)c1` [Compound 173, N-methyl-N-[3-[1-methyl-6-(4-methylsulfonylanilino)pyrrolo[3,2-c]pyridin-2-yl]phenyl]acetamide], the Emax is 30 to 50%.
For `COc1cccc(Nc2nccc3[nH]c(-c4ccc5c(c4)OCCO5)nc23)c1` [Compound 410, 2-(2,3-dihydro-1,4-benzodioxin-6-yl)-N-(3-methoxyphenyl)-1H-imidazo[4,5-c]pyridin-4-amine], the Emax lay in the range of 30 to 50%.
The figure for `Cn1cc(-c2cc3c(Nc4ccc(S(C)(=O)=O)cc4)nccc3[nH]2)cn1` [Compound 246, 2-(1-methylpyrazol-4-yl)-N-(4-methylsulfonylphenyl)-1H-pyrrolo[3,2-c]pyridin-4-amine] is over 100%; for `CNc1nc2cnc(Nc3ccc(OC)c(OC)c3)cc2n1-c1ccccc1` [Compound 506, N6-(3,4-dimethoxyphenyl)-N2-methyl-1-phenyl-imidazo[4,5-c]pyridine-2,6-diamine] it is 50 to 100%.
The figure for `COc1ccc(Nc2nccc3c2cc(-c2ccc(N(C)C)cc2)n3C)cc1O` [Compound 228, 5-[[2-(4-dimethylaminophenyl)-1-methyl-pyrrolo[3,2-c]pyridin-4-yl]amino]-2-methoxy-phenol] is 50 to 100%; for `Oc1ccc(-c2nc3c(Nc4ccccc4)nccc3[nH]2)cc1` [Compound 365, 4-(4-anilino-1H-imidazo[4,5-c]pyridin-2-yl)phenol] it is 30 to 50%; for `CNc1nc2cnc(-c3ccccc3OC)cc2n1-c1ccccc1` [Compound 782, 6-(2-methoxyphenyl)-N-methyl-1-phenyl-imidazo[4,5-c]pyridin-2-amine] it is 0 to 30%.
The figure for `CNc1nc2cnc(Nc3ccc(NC(C)=O)cc3)cc2n1CC1CC1` [Compound 568, N-[4-[[1-(cyclopropylmethyl)-2-(methylamino)imidazo[4,5-c]pyridin-6-yl]amino]phenyl]acetamide] is 50 to 100%; for `COCCNc1nc2cnc(-c3cccc(N(C)C)c3)cc2n1C` [Compound 647, 6-[3-(dimethylamino)phenyl]-N-(2-methoxyethyl)-1-methyl-imidazo[4,5-c]pyridin-2-amine] it is 50 to 100%; for `CS(=O)(=O)Nc1cccc(Nc2nccc3[nH]c(-c4ccc(O)cc4)nc23)c1` [Compound 366, N-[3-[[2-(4-hydroxyphenyl)-1H-imidazo[4,5-c]pyridin-4-yl]amino]phenyl]methanesulfonamide] it is 30 to 50%.
For the molecule `COc1ccc(Nc2cc3c(cn2)nc(-c2ccc(OC)c(OC)c2)n3C)cc1` [Compound 721, 2-(3,4-dimethoxyphenyl)-N-(4-methoxyphenyl)-1-methyl-imidazo[4,5-c]pyridin-6-amine], the Emax lay within 50 to 100%.
The figure for `CNc1nc2cnc(-c3cccc4ccccc34)cc2n1-c1cccc(F)c1` [Compound 884, 1-(3-fluorophenyl)-N-methyl-6-(1-naphthyl)imidazo[4,5-c]pyridin-2-amine] is 30 to 50%; for `CN(C)C(=O)c1ccc(-c2cc3cnc(Nc4cccc(OC(F)(F)F)c4)cc3[nH]2)cc1` [Compound 33, N,N-dimethyl-4-[6-[3-(trifluoromethoxy)anilino]-1H-pyrrolo[3,2-c]pyridin-2-yl]benzamide] it is 30 to 50%; for `Cn1c(-c2ccsc2)cc2c(Nc3cccnc3)nccc21` [Compound 276, 1-methyl-N-(3-pyridyl)-2-(3-thienyl)pyrrolo[3,2-c]pyridin-4-amine] it is 30 to 50%.
The figure for `Cc1cccc(CNc2nc3cnc(Nc4cccc(S(C)(=O)=O)c4)cc3n2C)c1` [Compound 584, 1-methyl-N6-(3-methylsulfonylphenyl)-N2-(m-tolylmethyl)imidazo[4,5-c]pyridine-2,6-diamine] is 30 to 50%; for `Cc1cccc(-c2nc3c(NCCc4ccccn4)nccc3[nH]2)c1` [Compound 437, 2-(m-tolyl)-N-[2-(2-pyridyl)ethyl]-1H-imidazo[4,5-c]pyridin-4-amine] it is 30 to 50%; for `c1ccc(-c2nc3c(NCC4CC4)nccc3[nH]2)cc1` [Compound 339, N-(cyclopropylmethyl)-2-phenyl-1H-imidazo[4,5-c]pyridin-4-amine] it is 30 to 50%.
The figure for `CC(=O)N(C)c1cccc(-c2cc3cnc(Nc4ccc(C(=O)N(C)C)cc4)cc3n2C)c1` [Compound 172, 4-[[2-[3-[acetyl(methyl)amino]phenyl]-1-methyl-pyrrolo[3,2-c]pyridin-6-yl]amino]-N,N-dimethyl-benzamide] is 50 to 100%; for `COc1ccccc1-c1cc2c(Nc3cccc(NC(C)=O)c3)nccc2[nH]1` [Compound 299, N-[3-[[2-(2-methoxyphenyl)-1H-pyrrolo[3,2-c]pyridin-4-yl]amino]phenyl]acetamide] it is 50 to 100%.
In the case of `COc1cccc(-c2nc3c(Nc4ccc(OC)c(OC)c4)nccc3[nH]2)c1` [Compound 369, N-(3,4-dimethoxyphenyl)-2-(3-methoxyphenyl)-1H-imidazo[4,5-c]pyridin-4-amine], the Emax is over 100%.
With `CC(=O)Nc1cccc(Nc2cc3c(cn2)nc(-c2ccco2)n3C)c1` [Compound 712, N-[3-[[2-(2-furyl)-1-methyl-imidazo[4,5-c]pyridin-6-yl]amino]phenyl]acetamide], the Emax lay in the range of 50 to 100%.
For the molecule `CNc1nc2cnc(Nc3ccc4c(c3)OCCO4)cc2n1-c1ccccc1` [Compound 505, N6-(2,3-dihydro-1,4-benzodioxin-6-yl)-N2-methyl-1-phenyl-imidazo[4,5-c]pyridine-2,6-diamine], the Emax lay in the range of 50 to 100%.
The figure for `c1ccc(-c2nc3c(N4CCOCC4)nccc3[nH]2)cc1` [Compound 338, 4-(2-phenyl-1H-imidazo[4,5-c]pyridin-4-yl)morpholine] is 30 to 50%.
As to `Cn1c(NCc2ccccc2)nc2cnc(Nc3cccc(O)c3)cc21` [Compound 622, 3-[[2-(benzylamino)-1-methyl-imidazo[4,5-c]pyridin-6-yl]amino]phenol], the Emax lay in the range of 50 to 100%.
For `CN(C)C(=O)c1ccc(-c2cc3c(Nc4ccc(Oc5ccccc5)cc4)nccc3n2C)cc1` [Compound 217, N,N-dimethyl-4-[1-methyl-4-(4-phenoxyanilino)pyrrolo[3,2-c]pyridin-2-yl]benzamide], the Emax was in the range of 0 to 30%.
The figure for `CNc1nc2cnc(Nc3ccc(C(C)C)cc3)cc2n1CCOC` [Compound 498, N6-(4-isopropylphenyl)-1-(2-methoxyethyl)-N2-methyl-imidazo[4,5-c]pyridine-2,6-diamine] is 30 to 50%; for `COCCNC(=O)c1cccc(-c2nc3c(Nc4cc(OC)c(OC)c(OC)c4)nccc3[nH]2)c1` [Compound 385, N-(2-methoxyethyl)-3-[4-(3,4,5-trimethoxyanilino)-1H-imidazo[4,5-c]pyridin-2-yl]benzamide] it is over 100%; for `COc1ccc(Nc2cc3c(cn2)nc(-c2ccc(OC)c(OC)c2)n3C)c(C)c1` [Compound 720, 2-(3,4-dimethoxyphenyl)-N-(4-methoxy-2-methyl-phenyl)-1-methyl-imidazo[4,5-c]pyridin-6-amine] it is 30 to 50%.
The figure for `CN(C)c1cccc(-c2cc3c(cn2)nc(NCc2ccccc2)n3C)c1` [Compound 620, N-benzyl-6-[3-(dimethylamino)phenyl]-1-methyl-imidazo[4,5-c]pyridin-2-amine] is over 100%; for `CN(C)C(=O)c1ccc(-c2cc3c(Nc4ccc5c(c4)OCCO5)nccc3n2C)cc1` [Compound 214, 4-[4-(2,3-dihydro-1,4-benzodioxin-6-ylamino)-1-methyl-pyrrolo[3,2-c]pyridin-2-yl]-N,N-dimethyl-benzamide] it is 50 to 100%.
The figure for `CNc1nc2cnc(Nc3ccc(NC(C)=O)cc3)cc2n1-c1cc(OC)c(OC)c(OC)c1` [Compound 483, N-[4-[[2-(methylamino)-1-(3,4,5-trimethoxyphenyl)imidazo[4,5-c]pyridin-6-yl]amino]phenyl]acetamide] is 50 to 100%; for `CS(=O)(=O)c1cccc(Nc2nccc3[nH]c(-c4ccccc4)nc23)c1` [Compound 336, N-(3-methylsulfonylphenyl)-2-phenyl-1H-imidazo[4,5-c]pyridin-4-amine] it is 30 to 50%.
For the molecule `c1cc(Nc2nccc3[nH]c(-c4ccsc4)cc23)ccn1` [Compound 258, N-(4-pyridyl)-2-(3-thienyl)-1H-pyrrolo[3,2-c]pyridin-4-amine], the Emax was over 100%.
The figure for `COc1cccc(-c2nc3c(N4CCOCC4)nccc3[nH]2)c1F` [Compound 480, 4-[2-(2-fluoro-3-methoxy-phenyl)-1H-imidazo[4,5-c]pyridin-4-yl]morpholine] is 30 to 50%; for `CN(C)C(=O)c1ccc(-c2cc3c(Nc4cccc(N(C)C)c4)nccc3n2C)cc1` [Compound 218, 4-[4-[3-(dimethylamino)anilino]-1-methyl-pyrrolo[3,2-c]pyridin-2-yl]-N,N-dimethyl-benzamide] it is 50 to 100%; for `COc1cccc(-c2cc3c(cn2)nc(NCCc2cc(OC)ccc2OC)n3C)c1` [Compound 823, N-[2-(2,5-dimethoxyphenyl)ethyl]-6-(3-methoxyphenyl)-1-methyl-imidazo[4,5-c]pyridin-2-amine] it is 30 to 50%.
The figure for `CC(=O)N(C)c1cccc(-c2cc3cnc(Nc4ccc(N5CCOCC5)cc4)cc3n2C)c1` [Compound 163, N-methyl-N-[3-[1-methyl-6-(4-morpholinoanilino)pyrrolo[3,2-c]pyridin-2-yl]phenyl]acetamide] is 50 to 100%; for `Cn1cc(-c2cc3cnc(Nc4ccncc4)cc3n2C)cn1` [Compound 135, 1-methyl-2-(1-methylpyrazol-4-yl)-N-(4-pyridyl)pyrrolo[3,2-c]pyridin-6-amine] it is 50 to 100%.
In the case of `COc1ccc(OC)c(CCNc2nc3cnc(-c4ccc(O)c(OC)c4)cc3n2C)c1` [Compound 594, 4-[2-[2-(2,5-dimethoxyphenyl)ethylamino]-1-methyl-imidazo[4,5-c]pyridin-6-yl]-2-methoxy-phenol], the Emax lay in the range of 30 to 50%.

The values are drawn from patent EP2818472A1, “Imidazo[4,5-c]pyridine and pyrrolo[3,2-c]pyridine compounds as G-protein-coupled receptor kinase 5 (GRK5) modulators” (Max-Planck-Gesellschaft zur Förderung der Wissenschaften …, priority 2013, dated 2014).
